Reference: US20210052358A1, “TEETH WHITENING PRODUCT CONTAINING PIEZOELECTRIC MATERIAL” (Nanjing University of Science & Technology, priority 2019, published 2021)
Read-outs that look alike come from different tables or passages of the source.

Assays:
[1] = after whitening for the same time period, SEM (FIG. 7)
[2] = test system: rat thoracic aortic smooth muscle cells; format: cell-based; details: added to culture medium; final concentration: barium titanate 1 mg/mL, H2O2 15% (FIG. 6)
Experimental: A biological toxicity testing was conducted on barium titanate powders using rat thoracic aortic smooth muscle cells. Different additives were charged into cell culture media. After culture for a period of time, biological statistics was conducted. FIG. 6(a) illustrates a cell count in a standard medium as a function of cell culture time; FIGS. 6(b) and 6(c) illustrate results after addition of barium titanate powders (final concentration: 1 mg/mL) and 30% H2O2 (final concentration: 15%) in a culture medium, respectively; FIG. 6(d) illustrates mathematical statistics of results of every day.

## OO [H2O2, hydrogen peroxide]
[1]
  damage to the tooth surface / enamel: damages the tooth surface seriously
[1]; listed as 30% H2O2
  damage to the tooth surface / enamel: causes non-ignorable damage to the enamel on the tooth surface
[2]
  effect on cell growth and proliferation (cell count versus culture time): almost all cells in the medium die
